Measurements: ChEMBL document CHEMBL1201862, “PubChem BioAssay data set” (2004)
Calls of active or inactive are those of the source.

Key:
[1] = biological target: T1, Corticotropin-releasing factor receptor 2/Corticotropin-releasing factor-binding protein (Homo sapiens, UniProt P24387+Q13324); assay: Dose Response confirmation of uHTS hits for small molecule antagonists of the CRF-binding protein and CRF-R2 receptor complex.; assay type: functional; details: read-out: IC50_Mean
T1 sequence (Q13324 whole entry): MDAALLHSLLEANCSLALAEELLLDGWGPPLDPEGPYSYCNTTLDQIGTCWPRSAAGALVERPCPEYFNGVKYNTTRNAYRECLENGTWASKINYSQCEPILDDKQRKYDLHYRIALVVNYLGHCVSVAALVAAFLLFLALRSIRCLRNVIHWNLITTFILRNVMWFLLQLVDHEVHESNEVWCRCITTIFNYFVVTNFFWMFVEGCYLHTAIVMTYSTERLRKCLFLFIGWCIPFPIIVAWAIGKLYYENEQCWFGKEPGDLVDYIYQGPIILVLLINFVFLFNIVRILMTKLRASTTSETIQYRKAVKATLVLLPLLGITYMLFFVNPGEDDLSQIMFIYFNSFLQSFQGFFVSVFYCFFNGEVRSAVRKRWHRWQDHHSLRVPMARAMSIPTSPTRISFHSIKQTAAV
T1 sequence (P24387 whole entry): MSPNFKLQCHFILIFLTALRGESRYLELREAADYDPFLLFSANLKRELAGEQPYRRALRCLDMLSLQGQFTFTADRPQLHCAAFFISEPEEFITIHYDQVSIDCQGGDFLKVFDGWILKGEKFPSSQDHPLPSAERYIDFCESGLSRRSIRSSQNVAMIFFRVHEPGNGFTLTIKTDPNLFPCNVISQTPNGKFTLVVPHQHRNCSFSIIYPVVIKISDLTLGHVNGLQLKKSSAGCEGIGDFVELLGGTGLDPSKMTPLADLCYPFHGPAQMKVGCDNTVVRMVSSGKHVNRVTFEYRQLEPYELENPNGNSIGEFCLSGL

[2] = biological target: T2, Polyadenylate-binding protein 1 (Homo sapiens, UniProt P11940); assay: MLLE binding blockers, Cy5 peptide tracer – biochemical, fluorescence polarization, Cy5-PAM2 peptide, secondary, miRNA deadenylation inhibitor project, dose response (AID 602260); assay type: functional; details: read-out: IC50_Mean
T2 sequence (P11940 whole entry, the tested form may be a part): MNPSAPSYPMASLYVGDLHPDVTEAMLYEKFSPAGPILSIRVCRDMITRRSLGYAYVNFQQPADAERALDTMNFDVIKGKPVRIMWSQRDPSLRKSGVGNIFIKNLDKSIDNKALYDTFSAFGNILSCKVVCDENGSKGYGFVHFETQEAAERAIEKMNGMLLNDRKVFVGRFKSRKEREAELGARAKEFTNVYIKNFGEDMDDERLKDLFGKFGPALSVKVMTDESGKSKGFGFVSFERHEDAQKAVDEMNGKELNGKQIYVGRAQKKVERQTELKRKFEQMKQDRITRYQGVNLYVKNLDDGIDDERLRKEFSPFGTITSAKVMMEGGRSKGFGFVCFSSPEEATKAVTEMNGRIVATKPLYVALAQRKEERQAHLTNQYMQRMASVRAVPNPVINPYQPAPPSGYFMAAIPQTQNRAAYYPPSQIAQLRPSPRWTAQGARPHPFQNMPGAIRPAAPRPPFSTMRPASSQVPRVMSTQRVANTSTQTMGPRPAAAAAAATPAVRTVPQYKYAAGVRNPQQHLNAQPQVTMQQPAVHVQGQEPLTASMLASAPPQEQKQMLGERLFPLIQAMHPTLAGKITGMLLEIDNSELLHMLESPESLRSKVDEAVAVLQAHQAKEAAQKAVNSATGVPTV

[3] = biological target: T2, Polyadenylate-binding protein 1; assay: MLLE domain peptide-binding blockers, IC50 – biochemical, fluorescence polarization, FITC-PAM2 peptide, dose response (AID 602259); assay type: functional; details: read-out: IC50_Mean
[4] = biological target: T3, RNA-binding protein pos-1 (Caenorhabditis elegans, UniProt G5EF15); assay: disruptors of C. elegans POS-1 RNA interaction – biochemical, fluorescence polarization, dose response (AID 1964);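 note: purified POS-1 fused to maltose binding protein made in E. coli; potency of compounds blocking POS-1 binding to fluorescent RNA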
T3 sequence (G5EF15 whole entry): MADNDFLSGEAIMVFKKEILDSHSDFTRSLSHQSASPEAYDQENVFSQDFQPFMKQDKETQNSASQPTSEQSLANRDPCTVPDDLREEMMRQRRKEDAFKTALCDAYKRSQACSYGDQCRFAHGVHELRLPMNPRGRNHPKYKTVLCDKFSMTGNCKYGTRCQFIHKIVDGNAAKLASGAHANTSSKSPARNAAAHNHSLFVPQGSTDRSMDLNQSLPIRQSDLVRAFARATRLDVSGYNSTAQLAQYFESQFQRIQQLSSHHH

[5] = biological target: T4, Zinc finger protein mex-5 (Caenorhabditis elegans, UniProt Q9XUB2); assay: potency of MEX-5 RNA-binding blockers – biochemical, C. elegans, fluorescence polarization, dose response (AID 1960)
T4 sequence (Q9XUB2 whole entry): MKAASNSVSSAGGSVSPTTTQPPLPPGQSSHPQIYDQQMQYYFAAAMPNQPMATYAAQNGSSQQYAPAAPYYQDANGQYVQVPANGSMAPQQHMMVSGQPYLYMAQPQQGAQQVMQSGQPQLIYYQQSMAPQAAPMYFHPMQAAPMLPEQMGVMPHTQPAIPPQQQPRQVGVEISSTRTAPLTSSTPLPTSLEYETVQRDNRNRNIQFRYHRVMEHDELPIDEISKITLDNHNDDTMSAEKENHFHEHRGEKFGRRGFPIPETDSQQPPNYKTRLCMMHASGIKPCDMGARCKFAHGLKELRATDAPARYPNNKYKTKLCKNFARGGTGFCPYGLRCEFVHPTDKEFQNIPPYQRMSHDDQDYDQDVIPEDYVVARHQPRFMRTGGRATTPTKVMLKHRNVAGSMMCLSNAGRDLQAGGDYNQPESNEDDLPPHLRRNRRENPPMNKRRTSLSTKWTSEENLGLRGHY

[6] = biological target: T1, Corticotropin-releasing factor receptor 2/Corticotropin-releasing factor-binding protein; assay: activators of CRF receptor 2 with binding protein – uHTS hits, confirmation (AID 602473); assay type: functional; details: read-out: EC50_Mean
SN12K1 = assay: cells; assay type: functional; details: Homo sapiens
P388 = assay: cells; assay type: functional; details: Mus musculus
P388/ADR = assay: cells; assay type: functional; details: Mus musculus
[7] = Luminescence Cell-Based Dose Retest to Confirm Inhibitors of Cancer Stem Cells. [Related pubchem assays (depositor defined):AID2717, AID2721]; assay type: functional; details: Homo sapiens
[8] = biological target: Heat shock protein HSP 90-alpha (Homo sapiens, UniProt P07900); assay type: functional, organism-based
[9] = biological target: T5, High affinity choline transporter 1 (Homo sapiens, UniProt Q9GZV3); assay: human choline transporter blockers, potency – cell-based, 5-point CRC, membrane potential dye, dose response (AID 504840); assay type: functional
T5 sequence (Q9GZV3 whole entry): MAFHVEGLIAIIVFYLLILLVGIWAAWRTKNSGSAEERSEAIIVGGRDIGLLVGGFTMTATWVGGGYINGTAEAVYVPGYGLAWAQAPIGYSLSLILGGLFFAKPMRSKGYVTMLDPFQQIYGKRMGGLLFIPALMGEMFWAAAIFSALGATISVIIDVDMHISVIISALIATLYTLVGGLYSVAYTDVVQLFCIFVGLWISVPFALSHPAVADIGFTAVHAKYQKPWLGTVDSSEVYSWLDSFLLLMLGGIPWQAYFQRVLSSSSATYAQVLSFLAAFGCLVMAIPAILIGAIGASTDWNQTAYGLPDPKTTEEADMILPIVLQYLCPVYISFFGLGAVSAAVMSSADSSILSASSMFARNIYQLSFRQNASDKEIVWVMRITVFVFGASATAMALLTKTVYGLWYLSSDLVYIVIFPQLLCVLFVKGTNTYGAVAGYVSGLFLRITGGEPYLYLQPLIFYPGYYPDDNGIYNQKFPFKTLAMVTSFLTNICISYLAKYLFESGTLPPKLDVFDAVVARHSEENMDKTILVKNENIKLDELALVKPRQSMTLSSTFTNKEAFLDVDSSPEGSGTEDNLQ

[10] = NIH-3T3 fibroblast cytotoxicity, dose response, cytotoxicity control, cell-based, fluorescence, Alamar Blue, secondary assay (AID 2327); assay type: functional;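 note: NIH-3T3 mouse fibroblasts cultured with fluconazole at 8 µg/mL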
[11] = fluconazole-exposed Candida albicans growth modulators – fluorescence, retest, confirmation (AID 2467); assay type: functional, cell-based
[12] = system: Streptococcus sp. 'group A'; assay: Streptococcus pyogenes SK(-)GAS viability under kanamycin – luminescence, BacTiterGlo, confirmation, counter-screen for streptokinase expression inhibitor project, dose response (AID 1900); assay type: functional, organism-based
Streptococcus = assay: GAS UMAA2166 growth inhibition – luminescence, BacTiterGlo, counter-screen for streptokinase expression inhibitor project, dose response (AID 1915); assay type: functional, organism-based;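 note: potency for reduction of bacterial viability or growth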
INS1 = assay: INS-1E survival protection against cytokine death – cell-based, luminescence, retest, dose response (AID 449756); assay type: functional; details: Rattus norvegicus;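 note: cell death triggered by IL-1 beta plus TNF-alpha plus IFN-gamma mixture; protective hits raise ATP signal compared with cytokine alone wells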
[13] = HIV-1 AD8 envelope cell-cell fusion blockers – cherry-pick, dose response (AID 652062); assay type: functional, cell-based;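 note: luciferase signal from cell-cell fusion driven by HIV-1 clade B AD8 Env; potency is for inhibitors of fusion seen as a drop in luminescence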
[14] = blockers of HIV-1 envelope-mediated cell-cell fusion – cherry-pick, dose response (AID 652057); assay type: functional, cell-based

**Q.** For `CC(C)(C)OC(=O)NC(Cc1ccccc1)C(=O)N1CCC(C(=O)NCC(=O)Nc2ccc(F)cc2)CC1` (centres undefined), which IC50 [1] is on record?
**A.** The IC50 was > 47.1 µM (inactive).

**Q.** What about the IC50 [2] of the same compound?
**A.** The IC50 was > 66 µM (inactive).

**Q.** And the IC50 [3]?
**A.** The IC50 was 28.7 µM (inactive).

**Q.** And the EC50 [4]?
**A.** The EC50 was 7.08 µM (active).

**Q.** And the EC50 [5]?
**A.** The EC50 was 2.04 µM (inconclusive).

**Q.** What about the EC50 [6] of the same compound?
**A.** The EC50 was > 53 µM (inactive).

**Q.** Which results are given for `CNC(=O)OCc1nc(SC(C)C)n(C)c1COC(=O)NC`?
**A.** GI50 (SN12K1): > 100 µM (inactive); GI50 (P388): 46.9 µM (inactive); GI50 (P388/ADR): 83.6 µM (inactive)

**Q.** With `O=c1oc2ccccc2c(O)c1Cc1cc(Cl)c2cccnc2c1O` as the compound, how does the AC50 [7] read?
**A.** Its AC50 is 1.09 µM (active).

**Q.** What about the AC50 [8] of the same compound?
**A.** Its AC50 is 7.2 µM (active).

**Q.** What about the IC50 [9] of the same compound?
**A.** The IC50 was 15.2 µM (active).

**Q.** And the EC50 [10]?
**A.** Its EC50 is 76.3 µM (active).

**Q.** And the EC50 [11]?
**A.** Its EC50 is > 38 µM (not active).

**Q.** Which AC50 [8] does the source give for `CN(C)/C=C/C(=O)c1ccc2noc(-c3cccc(F)c3)c2c1` here?
**A.** Its AC50 is 7.95 µM (active).

**Q.** What does the source list for `CCN1CCN(C(c2ccc(C(F)(F)F)cc2)c2ccc3cccnc3c2O)CC1` (centres undefined)?
**A.** IC50 [2]: > 66 µM (inactive); EC50 [12]: 3.02 µM (active); AC50 [8]: 1.36 µM (active); EC50 (Streptococcus): 3.5 µM (active); IC50 [3]: > 66 µM (inactive); AC50 (INS1): 2.15 µM (active)

**Q.** Which results are given for `O=C(NCc1cccc(Cl)c1)C1CCC(=O)N(CC2CCCCC2)C1` (centres undefined)?
**A.** IC50 [1]: > 47.1 µM (inactive); EC50 [6]: > 53 µM (inactive)

**Q.** With `CN(C)CCNC(=O)c1cccc2cc3cc(O)ccc3nc12` as the compound, how does the GI50 (SN12K1) read?
**A.** The GI50 was 0.339 µM (active).

**Q.** What about the GI50 (P388) of the same compound?
**A.** The GI50 was 0.0748 µM (active).

**Q.** What about the GI50 (P388/ADR) of the same compound?
**A.** Its GI50 is 0.288 µM (active).

**Q.** With `COc1ccccc1N1CCN(C(c2ccc(Cl)cc2)c2nnnn2C(C)(C)C)CC1` (centres undefined) as the compound, how does the IC50 [1] read?
**A.** The IC50 was > 47.1 µM (inactive).

**Q.** And the EC50 [6]?
**A.** The EC50 was > 53 µM (inactive).

**Q.** For `Cc1cc(N2CCN(C(=O)c3ccco3)CC2)n2ncc(-c3ccccc3)c2n1`, which AC50 [8] is on record?
**A.** The AC50 was 2.23 µM (active).

**Q.** For `O=c1c2ccccc2nnn1CSc1nnc(COc2ccc(Cl)cc2)n1Cc1ccco1`, which AC50 [13] is on record?
**A.** Its AC50 is 1.12 µM (active).

**Q.** What about the AC50 [14] of the same compound?
**A.** Its AC50 is 15.2 µM (active).

**Q.** What about the AC50 [8] of the same compound?
**A.** Its AC50 is 3.26 µM (active).

**Q.** With `Nc1cc(O)c2cc(/N=N/c3ccc(/N=N/c4ccc(/N=N/c5ccc6cc(S(=O)(=O)O)cc(S(=O)(=O)O)c6c5)c5ccccc45)c4cc(S(=O)(=O)O)ccc34)c(S(=O)(=O)O)cc2c1` as the compound, how does the GI50 (SN12K1) read?
**A.** Its GI50 is > 100 µM (inactive).

**Q.** And the GI50 (P388)?
**A.** Its GI50 is > 100 µM (inactive).
